Test results: patent US8455495B2, “Pyridazino-pyridinone compounds and methods of use” (Amgen Inc., priority 2008, dated 2013)
Like-named read-outs stand apart in the source and are kept apart here.

How the values were obtained:
[1] = test system: TNF-α induced IL-8 in 50% human whole blood; assay: Inhibition of TNF-α induced IL-8 in 50% human whole blood; format: cell-based
Experimental: Inhibition of TNF-α Induced IL-8 in 50% Human Whole Blood
Test compounds were evaluated in vitro for the ability to inhibit the production of secreted IL-8 by whole blood activated with TNF-α. Fresh human whole blood was obtained from healthy, non-medicated volunteers in sodium heparin tubes.
Compound Dilution—Assay Procedure
Test compounds are serially diluted 1:3 in DMSO and then diluted 1:250 into R10 (RPMI 1640, 10% human serum AB, 1× pen/strep/glutamine) to the 4× working concentration to be used in the assay. 100 ul heparinized whole blood is plated into wells of 96 well flat bottom plates. 50 ul of either 4× compound or DMSO control (Final DMSO concentration is 0.1%) are added to the appropriate wells. Plates are incubated for 1 hour at 37 degrees Celsius. 50 ul of 4×TNF-α (4 nM TNF-α, for a final concentration of 1 nM) or control (media alone) is added to the appropriate wells (Total volume=200 ul). Plates are incubated overnight (16-18 hours). 100 ul of supernatant is collected and stored in 96-well round bottom polypropylene plates at −80 degrees Celsius or assayed immediately for IL-8.
Cytokines are measured on antibody (Ab) sandwich ECL based 96-well detection plates. 20 ul of supernatant are added to plate and plate is sealed and shaken at RT for 1 hour. 130 ul of detection Ab cocktail is added and plates are sealed and shaken for 1 hour in the dark at RT. Plates are read on MSD Sector HTS instrument. Data are analyzed and IC50 values generated using Activity Base and X1-fit programs.

recombinant human p38α = recombinant human p38α (Homo sapiens, UniProt Q16539); assay: Purified and activated recombinant human p38α HTRF assay; format: biochemical; settings: 1 nM p38α, 50 μM ATP, GST-ATF2 substrate, read-out: p38a IC50
Experimental: Purified and Activated Recombinant Human p38α Assay Kinase Reaction Buffer: […] HTRF Detection Buffer: […] Serial Dilution of Compounds: […] Columns 6 and 12 (HI controls and LO controls respectively) in the drug plate were reserved as controls and contained only DMSO. Kinase Reaction: […] See table below for actual concentrations. In the absence of substrate, the background was measured as LO control. […] Assay Reagent Concentrations: […] HTRF Detection: […] After 60 minutes incubation at room temperature, the assay plate was read in a Discovery Plate Reader. The wells were excited with coherent 320 nm light and the ratio of delayed ([…] post excitation) emissions at […] (native europium fluorescence) and 665 nm (europium fluorescence transferred to allophycocyanin-an index of substrate phosphorylation) was determined (Park et al, 1999). Data Analysis: […] Data (consisting of POC and inhibitor concentration in μM) was fitted to a 4-parameter equation ([…]))), where A is the minimum y (POC) value, B is the maximum y (POC), C is the x (compound concentration) at the point of inflection and D is the slope factor, using a Levenburg-Marquardt non-linear regression algorithm. The inhibition constant (Ki) of the inhibitor was estimated from the IC50 (compound concentration at the point of inflection C) using the Cheng-Prussof equation: […] All results were expressed as the mean±the standard error of the mean. Data acquisition and non-linear regression algorithms were performed using Activity Base v5.2 and XL-fit software v4.1 respectively. All data was archived using Activity Base v5.2 software.

[2] = test system: TNF-α production by LPS-activated THP1 cells; assay: Lipopolysaccharide-activated THP1 cell TNF production assay; format: cell-based; settings: Homo sapiens, read-out: IC50 in THP-1 cellular TNF production assay
Experimental: Lipopolysaccharide-Activated THP1 Cell TNF Production Assay
THP1 cells were resuspended in fresh THP1 media (RPMI 1640, 10% heat-inactivated FBS, 1×PGS, 1×NEAA, plus 30 μM βME) at a concentration of 1.5×10^6 cells per mL. One hundred microliters of cells per well were plated in a polystyrene 96-well tissue culture plate. 1.5 micrograms per mL of bacterial LPS was prepared in THP1 media and transferred to the first 11 columns of a 96-well polypropylene plate. Column 12 contained only THP1 media for the LO control. Compounds were dissolved in 100% DMSO and serially diluted 3 fold in a polypropylene 96-well microtiter plate (drug plate). Columns 6 and 12 were reserved as controls (HI controls and LO controls respectively) and contained only DMSO. 10 μL of LPS followed by one microliter of inhibitor compound from the drug plate was transferred to the cell plate. The treated cells were induced to synthesize and secrete TNF-α in a 37° C. humidified incubator with 5% CO2 for 3 hours. Fifty microliters of conditioned media was transferred to a 96-well MULTI-ARRAY™ 96-well small spot plate—custom coated with MAB610 containing 100 μL of 2× Read Buffer P supplemented with 0.34 nM AF210NA polyclonal Ab labeled with ruthenium (MSD—Sulfo-TAG™—NHS ester). After an overnight incubation at room temperature with shaking, the reaction was read on the Sector Imager™ 6000. […] The amount of secreted TNF-α in the presence of test compounds compared with that in the presence of DMSO vehicle alone (HI control) was calculated using the formula: % control (POC)=(cpd−average LO)/(average HI−averageLO)*100. Data (consisting of POC and inhibitor concentration in μM) was fitted to a 4-parameter equation (y=A+((B−A)/(1+((x/C)^D))), where A is the minimum y (POC) value, B is the maximum y (POC), C is the x (cpd concentration) at the point of inflection and D is the slope factor) using a Levenburg-Marquardt non-linear regression algorithm.

[3] = test system: production of IL-1β, IL-6, and TNF-α by PBMC activated with LPS; assay: Lipopolysaccharide-activated PBMC cytokine production assay; format: cell-based; settings: Homo sapiens, read-out: IC50 in PBMC cytokine production assay
Experimental: Lipopolysaccharide-Activated Pbmc Cytokine Production Assay
Test compounds were evaluated in vitro for the ability to inhibit the production of IL-1β, IL-6, and TNF-α by PBMC activated with bacterial lipopolysaccharide (LPS). Fresh leukocytes were obtained from a local blood bank, and peripheral blood mononuclear cells (PBMCs) were isolated by density gradient centrifugation on Ficol-Paque Plus (Pharmacia).
Preparation of Test Compound Stock Solutions
All reagents were prepared in RPMI 1640+10% v/v human AB serum+1× Pens/Strep/Glu (assay medium). Test compounds were dissolved in 100% DMSO and serially diluted in 96-well polypropylene round bottom micro titer plates (drug plate). Serial dilutions were then diluted 1:250 into assay medium to a 4× working concentration. Compound serial dilutions were half-log, 10 point titrations with a final starting concentration of 1 μM.
Treatment of Cells with Test Compounds and Activation with Lipopolysaccharide
LPS was prepared to a 4× concentration in assay medium. 100 μl of PBMC (1×10^6 cells/ml) were plated in a 96-well polystyrene flat bottom micro titer tissue culture plate and incubated with 50 μl of 4× compound serial dilution for 1 hour at 37° C., 5% CO2 in a tissue culture incubator. 50 μl 4×LPS or control was added and the plates were incubated at 37° C., 5% CO2 in a tissue culture incubator for 18 hours. The final DMSO concentration was 0.1%. The total volume was 200 μL. The final LPS concentration was 100 ng/mL. After 18 hours culture supernatants were removed and IL-1β, IL-6, and TNF-α presence in the supernatants was quantified using MSD ECL based technology.
20 μL of culture supernatant were added to MSD plates, and incubated for one hour at room temperature. 20 μL of detection antibody diluted in antibody diluent (1 μg/mL), and 110 μL of 2× Read Buffer P was added, and incubated for one hour at RT. Electrochemiluminescence was measured using the SECTOR HTS Imager (MSD, Gaithersburg, Md.).
Compound IC50 values were calculated as follows: The proportion of cytokine production in the presence of compound compared to the cytokine production in the presence of the DMSO vehicle alone (Hi control) was calculated using the formula: Percent Control (POC)=(compound−average Lo)/(average Hi−average Lo)*100.

[4] = TNF-α (1 nM) induced IL-8, 50% human whole blood, 16-18 h, read-out: WB TNF/IL8 IC50
[5] = THP-1, THP1 cells, LPS, 3 hours

Chain of recombinant human p38α (Q16539 whole entry): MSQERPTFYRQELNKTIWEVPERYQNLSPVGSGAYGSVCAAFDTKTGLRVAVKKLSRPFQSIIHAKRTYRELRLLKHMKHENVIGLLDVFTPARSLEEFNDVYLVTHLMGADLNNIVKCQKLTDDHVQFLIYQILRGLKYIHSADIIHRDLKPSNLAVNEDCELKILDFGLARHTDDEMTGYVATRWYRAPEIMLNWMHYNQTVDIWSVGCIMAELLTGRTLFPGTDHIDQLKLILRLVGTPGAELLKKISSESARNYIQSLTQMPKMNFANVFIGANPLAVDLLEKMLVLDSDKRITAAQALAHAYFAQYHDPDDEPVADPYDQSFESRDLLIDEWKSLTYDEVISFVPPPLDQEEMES

CNC(=O)c1ccc(C)c(-c2cc3cnnc(-c4ccc(F)cc4F)c3n(C)c2=O)c1 [Example 31, 3-(8-(2,4-difluorophenyl)-1-methyl-2-oxo-1,2-dihydropyrido[2,3-d]pyridazin-3-yl)-N,4-dimethylbenzamide]
IC50 [1, 4]: 30 nM
IC50 (recombinant human p38α): 2.7 nM

Cc1ccc(C(=O)Nc2nccs2)cc1-c1cc2cnnc(-c3ccc(F)cc3Cl)c2n(C)c1=O [Example 24, 3-(8-(2-chloro-4-fluorophenyl)-1-methyl-2-oxo-1,2-dihydropyrido[2,3-d]pyridazin-3-yl)-4-methyl-N-1,3-thiazol-2-ylbenzamide]
IC50 [1, 4]: 9.3 nM
IC50 [2, 5]: ≤ 1000 nM
IC50 (recombinant human p38α): 1 nM
IC50 ([3]; LPS 100 ng/mL, 18 hours): ≤ 1000 nM

Cc1ccc(C(=O)NC2(C)CC2)cc1-c1cc2cnnc(-c3ccc(F)cc3Cl)c2n(C)c1=O [Example 20, 3-(8-(2-chloro-4-fluorophenyl)-1-methyl-2-oxo-1,2-dihydropyrido[2,3-d]pyridazin-3-yl)-4-methyl-N-(1-methylcyclopropyl)benzamide]
IC50 [1, 4]: 15.6 nM
IC50 [2, 5]: ≤ 1000 nM
IC50 (recombinant human p38α): 4.1 nM
IC50 ([3]; LPS 100 ng/mL, 18 hours): ≤ 1000 nM

Cc1cnc(C(=O)NC2CC2)cc1-c1cc2cnnc(-c3ccc(F)cc3F)c2n(C)c1=O [Example 30, N-cyclopropyl-4-(8-(2,4-difluorophenyl)-1-methyl-2-oxo-1,2-dihydropyrido[2,3-d]pyridazin-3-yl)-5-methyl-2-pyridinecarboxamide]
IC50 [1, 4]: 38 nM
IC50 (recombinant human p38α): 14 nM

Cc1ccc(C(=O)Nc2ccnn2C)cc1-c1cc2cnnc(-c3ccc(F)cc3F)c2n(C)c1=O [Example 15, 3-(8-(2,4-difluorophenyl)-1-methyl-2-oxo-1,2-dihydropyrido[2,3-d]pyridazin-3-yl)-4-methyl-N-(1-methyl-1H-pyrazol-5-yl)benzamide]
IC50 [1, 4]: 4.1 nM
IC50 [2, 5]: ≤ 1000 nM
IC50 (recombinant human p38α): 7.5 nM
IC50 ([3]; LPS 100 ng/mL, 18 hours): ≤ 1000 nM

Cc1cc(S(C)(=O)=O)ccc1-c1nncc2cc(-c3cc(C(=O)NC4CC4)cc(F)c3C)c(=O)n(C)c12 [Example 27, N-cyclopropyl-3-fluoro-4-methyl-5-(1-methyl-8-(2-methyl-4-(methylsulfonyl)phenyl)-2-oxo-1,2-dihydropyrido[2,3-d]pyridazin-3-yl)benzamide]
IC50 [1, 4]: 3.9 nM
IC50 (recombinant human p38α): 2.5 nM

Cc1ccc(C(=O)Nc2nccs2)cc1-c1cc2cnnc(-c3ccc(F)cc3F)c2n(C)c1=O [Example 32, 3-(8-(2,4-difluorophenyl)-1-methyl-2-oxo-1,2-dihydropyrido[2,3-d]pyridazin-3-yl)-4-methyl-N-1,3-thiazol-2-ylbenzamide]
IC50 [1, 4]: 7.3 nM
IC50 (recombinant human p38α): 1.2 nM

Cn1c(=O)c(-c2cc(C(=O)O)ccc2Cl)cc2cnnc(-c3ccc(F)cc3F)c21 [Example 4, 4-chloro-3-(8-(2,4-difluorophenyl)-1-methyl-2-oxo-1,2-dihydropyrido[3,2-d]pyridazin-3-yl)benzoic acid]
IC50 ([1]; read-out: WB TNF/IL8 IC50, TNF-α (1 nM) induced IL-8, 50% human whole blood, 16-18 h): > 2500 nM
IC50 (recombinant human p38α): > 1000 nM

CCn1c(=O)c(-c2cc(C(=O)NC3CC3)ccc2C)cc2cnnc(-c3ccccc3Cl)c21 [Example 28, 3-(8-(2-chlorophenyl)-1-ethyl-2-oxo-1,2-dihydropyrido[2,3-d]pyridazin-3-yl)-N-cyclopropyl-4-methylbenzamide]
IC50 [1, 4]: 1 nM
IC50 (recombinant human p38α): 1 nM

Cc1ccc(C(=O)NC2CC2)cc1-c1cc2cnnc(-c3ccc(S(C)(=O)=O)cc3C)c2n(C)c1=O [Example 26, N-cyclopropyl-4-methyl-3-(1-methyl-8-(2-methyl-4-(methylsulfonyl)phenyl)-2-oxo-1,2-dihydropyrido[2,3-d]pyridazin-3-yl)benzamide]
IC50 [1, 4]: 10 nM
IC50 (recombinant human p38α): 3.3 nM

Cc1ccc(C(=O)Nc2ccon2)cc1-c1cc2cnnc(-c3ccc(F)cc3F)c2n(C)c1=O [Example 33, 3-(8-(2,4-difluorophenyl)-1-methyl-2-oxo-1,2-dihydropyrido[2,3-d]pyridazin-3-yl)-N-3-isoxazolyl-4-methylbenzamide]
IC50 [1, 4]: 1.7 nM

Cc1ccc(C(=O)NC2CC2)cc1-c1cc2cnnc(-c3ccccc3C)c2n(C)c1=O [Example 6, N-cyclopropyl-4-methyl-3-(1-methyl-2-oxo-8-o-tolyl-1,2-dihydropyrido[3,2-d]pyridazin-3-yl)benzamide]
IC50 ([2]; THP-1, 3 h): ≤ 1000 nM
IC50 (recombinant human p38α): 11.4 nM
IC50 ([3]; 18 h): ≤ 1000 nM

Cc1ccc(C(=O)NC2(C)CC2)cc1-c1cc2cnnc(-c3ccc(F)cc3F)c2n(C)c1=O [Example 29, 3-(8-(2,4-difluorophenyl)-1-methyl-2-oxo-1,2-dihydropyrido[2,3-d]pyridazin-3-yl)-4-methyl-N-(1-methylcyclopropyl)benzamide]
IC50 [2, 5]: ≤ 1000 nM
IC50 (recombinant human p38α): 3 nM
IC50 ([3]; LPS 100 ng/mL, 18 hours): ≤ 1000 nM
